Literature values as cited in US20160175482A1, “COMPOSITION AND DELIVERY SYSTEM” (LOCATE THERAPEUTICS LIMITED, priority 2013, published 2016).

- log P: 6.85
SMILES: Cc1ccc(C)c(N=Nc2cc(C)c(N=Nc3c(O)ccc4ccccc34)cc2C)c1 [Oil Red-O]
